Experimental findings from patent US9163063B2, “Peptides and nanoparticles for therapeutic and diagnostic applications” (Trustees of Dartmouth College, priority 2009, dated 2015) are described below.

For series [1], the system named is MIAPaCa2 pancreatic cancer cells. Nature of the series: Subcutaneous MIAPaCa2 tumor, intratumoral peptide for 27 days. The following applies: whole course of treatment. The format is in vivo, nude mice. On the procedure: When the tumor reached about 5 mm-15 mm in diameter after subcutaneous transplantation of MIAPaCa2 cells (n=10 treatment, n=10 control) into the mouse right flank, mice were treated with 10 mM of peptide for 27 days dissolved in DMSO. The peptide was applied directly into the tumor. The control group was treated with phosphate buffered saline solution alone.
HE staining and immunostaining for Ki67 (n=6 treatment, n=7 control) was performed as described by the manufacturer. For evaluation the Zeiss Axioplan 2 microscope was used. Photos are made with Zeiss Axiocam. For photos 40× objectives were used. Statistical Analysis. Data are presented as means and differences in means with 95% confidence intervals for the differences. Tests for statistical differences were performed using t-tests and Mann-Whitney tests and Wilcoxon tests. For the in vivo experiments, at least 10 mice were used each group. This number was derived by power analysis to detect a 50% reduction in tumor size, with a beta error of 3%. Because the overall sample size was small and outcome variables could have a non-normal distribution, the non-parametric Mann-Whitney test was used to detect statistical significant differences in each group. P values less than 0.05 were considered to be significant. The significance of the tumor take rates was calculated by using a Wilcoxon-test. […]

Series [2] has as its system AsPC1 cells. The experiment in a line: Cellular localization of fluorescein-tagged analogs (confocal). Format: cell-based, human. An excerpt: Furthermore, the cellular localization of both CR1023 and CR1166 was investigated in AsPC1 cells using their fluorescein-tagged analogs CR1171 and CR1173 (FIG. 24). CR1172, the fluorescein-tagged analog of CR1164 was used as a control. The green (for fluorescein) and blue (for DAPI) fluorescent microscopy images were collected for AsPC1 cells treated with peptides CR1171, CR1172 and CR1173 using a LSM 510 confocal laser scan microscope. The presence of green fluorescence in FIGS. 24d, -g, -j indicated the internalization of CR1171, CR1172 and CR1173. Untreated AsPC1 cells were devoid of the green fluorescent signal.

The test system of series [3] is MDA-MB-231-WT breast cancer cells. Format: cell-based. Particulars: 50-200 μM, 48 h-96 h (Example 6). As for the experimental part: (§1) MDA231-W and AsPC1 cells were cultured in RPMI 1640 media supplemented with 10% fetal bovine serum (FBS), 5% L-Glutamine, and 1% antibiotics (penicillin-streptomycin purchased from Invitrogen, Carlsbad, Calif.). Cells were maintained at 37° C. in an atmosphere containing 95% air-5% CO2 (v/v). Cells were then incubated with different doses of GIPC inhibitor peptides (50-200 μM) for different time (48 h to 96 h). MDA-231 WT (4×10^4) and AsPC1 cells (2×10^4) were seeded in 24-well plates, cultured for 1 d in RPMI 1640 medium supplemented with 10% FBS, 5% L-Glutamine, and 1% antibiotics. Cells were then incubated with GIPC inhibitor peptides in a time dependent (48 h-96 h) and dose dependent manner (50-200 μM). After certain time of incubation, 1 μCi [^3H]-thymidine was added and proliferation assay performed as previously described. Experiments were repeated at least thrice and in triplicate.

Series [4] concerns MDA-MB-231-WT cells. The experiment in a line: Apoptosis assay (annexin/PI). The format is cell-based. The following applies: 50-200 μM. As for the experimental part:
(§2) MDA231-WT and AsPC1 ells were seeded into 6-well plates at a density of 4×10^5/2 ml of RPMI medium per well and grown overnight. Next day cells were treated with GIPC inhibitor peptides in a time dependent (48 h-96 h) and dose dependent manner (50-200 μM). After treatment with definite time, cells were extensively washed with PBS and tested with the Annexin V-FITC Apoptosis Detection Kit (Biovision, Cat. No. #K101-100) per the manufacturer's instructions.

Series [5] concerns AsPC1 cells. The experiment in a line: Apoptosis assay (annexin/PI). The format is cell-based, human. The following applies: 50-200 μM. On the procedure: as §2
Series [6] relates to AsPC1 cells. Format: cell-based, human. Particulars: 50-200 μM, 48 h-96 h (Example 6). As for the experimental part:
as §1

Ends that are not written are not given here. Peptide text beside a SMILES is read from it. * marks the point of attachment. fluorescein = fluorescein group attached to the lysine side chain; Benzoyl(4-Br) = O=C(c1ccc(Br)cc1)*; Myristoyl = CCCCCCCCCCCCCC(=O)*; Bz = O=C(c1ccccc1)*

Regarding `CCCCCCCCCCCCCC(=O)N1CCC[C@H]1C(=O)N[C@@H](CO)C(=O)N[C@@H](CCC(N)=O)C(=O)N[C@@H](CO)C(=O)N[C@@H](CO)C(=O)N[C@@H](CO)C(=O)N[C@@H](CCC(=O)O)C(=O)N[C@@H](C)C(=O)O` [PSQSSSEA, P-S-Q-S-S-S-E-A] (Myristoyl-PSQSSSEA-OH), the toxicity during treatment result in series [1] (listed as GIPC-PDZ-targeting peptide) is recorded as “without showing toxicity”; in series [1] (listed as PDZ domain inhibitor), “did not show any toxicity”.
For the compound “My-K(FI)PSQSK(4-Br-ben)SK(4-Br-ben)A (Myristoyl-K(fluorescein)PSQSK(Benzoyl(4-Br))SK(Benzoyl(4-Br))A) [CR1173]”, in series [2], the cellular localization entry is recorded as “localized on the membrane” and the “internalization (green fluorescence)” value is listed as “internalization”.
For the compound “My-K(FI)PSQSK(ben)SK(ben)A (Myristoyl-K(fluorescein)PSQSK(Bz)SK(Bz)A) [CR1172]”, in series [2], the cellular localization result is listed as “more dispersely localized” and the “internalization (green fluorescence)” value is given as “internalization”.
Consider “My-K(FI)PSQSSSEA (Myristoyl-K(fluorescein)PSQSSSEA) [CR1171]”, for which, in series [2], the cellular localization entry is listed as “more dispersely localized” and the “internalization (green fluorescence)” value is given as “internalization”.
In the case of “My-LLQGPSQSSSEA (Myristoyl-LLQGPSQSSSEA) [SEQ ID NO: 22]”, the “inhibition of cell proliferation” value in series [3] and in series [6] was “significant inhibitions” in each case. Also, the induction of apoptosis entry in series [4] and in series [5] was “significant induction of apoptosis” each time.
On to “My-PSQSK(4-Br-ben)SEA (Myristoyl-PSQSK(Benzoyl(4-Br))SEA) [CR1170]”, for which the induction of apoptosis result in series [4] and in series [5] was “no effect” throughout.
On to “My-PSQSK(ben)SK(ben)A (Myristoyl-PSQSK(Bz)SK(Bz)A) [CR1164]”, for which the “inhibition of cell proliferation” value in series [3] and in series [6] was “almost no or little effect” in each case. The induction of apoptosis result in series [4] and in series [5] was “no effect” each time.
Consider “My-PSQSSSK(4-Br-ben)A (Myristoyl-PSQSSSK(Benzoyl(4-Br))A) [CR1162]”, for which the “inhibition of cell proliferation” value in series [3] and in series [6] was “almost no or little effect” in each case.
In the case of “My-SESPSASQ (Myristoyl-SESPSASQ) [CR2055]”, the “inhibition of cell proliferation” value in series [3] and in series [6] was “no effect” throughout. Further, the induction of apoptosis entry in series [4] and in series [5] was “no effect” throughout.
Regarding “My-SPSASK(4-Br-ben)SQ (Myristoyl-SPSASK(Benzoyl(4-Br))SQ) [CR2059]”, the “inhibition of cell proliferation” value in series [3] and in series [6] was “very little effect” in each case. Further, the induction of apoptosis result in series [4] and in series [5] was “no effect” in each case.
